Our source for the IC50 and MIC values is ChEMBL document CHEMBL5143656, “Polyphenolic compounds: Synthesis, assessment of antimicrobial effect and enzymes inhibition against important medicinal enzymes with computational details” (Bioorg Med Chem Lett, 2022).

Experiment [1] deals with T1, Tyrosinase (Homo sapiens, UniProt P14679).
T1 sequence (P14679 whole entry): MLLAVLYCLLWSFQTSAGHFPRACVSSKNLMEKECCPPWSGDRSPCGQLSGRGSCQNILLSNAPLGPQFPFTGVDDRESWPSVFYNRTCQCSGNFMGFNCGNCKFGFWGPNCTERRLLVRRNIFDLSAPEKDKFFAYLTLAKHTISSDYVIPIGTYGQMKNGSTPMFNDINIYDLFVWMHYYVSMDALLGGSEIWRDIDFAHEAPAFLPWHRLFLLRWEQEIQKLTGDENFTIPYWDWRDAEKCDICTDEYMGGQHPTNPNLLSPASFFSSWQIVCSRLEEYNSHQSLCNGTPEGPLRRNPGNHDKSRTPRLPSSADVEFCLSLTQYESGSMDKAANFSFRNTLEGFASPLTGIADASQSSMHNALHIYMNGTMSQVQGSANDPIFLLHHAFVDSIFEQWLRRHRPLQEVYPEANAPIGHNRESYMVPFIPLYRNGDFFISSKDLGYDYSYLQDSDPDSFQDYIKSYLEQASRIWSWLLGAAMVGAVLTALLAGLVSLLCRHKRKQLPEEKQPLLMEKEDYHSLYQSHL
The experiment is described as follows: Inhibition of tyrosinase (unknown origin).

The target of experiment [2] is Cholinesterase (Homo sapiens, UniProt P06276). Kind of experiment: Inhibition of BChE (unknown origin) using […] as substrate incubated for 10 mins by Ellman's method.
Chain of Cholinesterase (P06276 whole entry): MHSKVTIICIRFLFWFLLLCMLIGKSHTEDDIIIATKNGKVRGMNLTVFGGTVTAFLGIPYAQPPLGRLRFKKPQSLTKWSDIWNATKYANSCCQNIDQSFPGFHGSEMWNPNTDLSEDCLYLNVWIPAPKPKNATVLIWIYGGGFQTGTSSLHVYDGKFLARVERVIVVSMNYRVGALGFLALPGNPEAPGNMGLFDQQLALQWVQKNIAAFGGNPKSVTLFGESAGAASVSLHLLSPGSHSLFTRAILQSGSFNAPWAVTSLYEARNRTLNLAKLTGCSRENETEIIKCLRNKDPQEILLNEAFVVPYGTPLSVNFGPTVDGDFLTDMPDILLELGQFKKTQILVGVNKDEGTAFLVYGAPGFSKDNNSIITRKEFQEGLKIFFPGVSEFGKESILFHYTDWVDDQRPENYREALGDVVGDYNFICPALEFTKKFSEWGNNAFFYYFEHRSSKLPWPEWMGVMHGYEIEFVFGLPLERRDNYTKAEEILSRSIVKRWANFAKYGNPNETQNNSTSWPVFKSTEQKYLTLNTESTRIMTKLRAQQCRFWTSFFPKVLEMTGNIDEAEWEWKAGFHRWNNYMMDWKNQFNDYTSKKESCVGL
Experiment [3] concerns Escherichia coli. Kind of experiment: Antimicrobial activity Escherichia coli against incubated for 24 hrs. The experiment is classed as functional.
For experiment [4], the system named is Staphylococcus aureus. Kind of experiment: Antimicrobial activity Staphylococcus aureus against incubated for 24 hrs. The experiment is classed as functional.
In experiment [5] the test system is Klebsiella pneumoniae. Kind of experiment: Antimicrobial activity Klebsiella pneumoniae against incubated for 24 hrs. The experiment is classed as functional.
Experiment [6] concerns PC-3. The experiment is described as follows: Cytotoxicity in human PC3 cells assessed as reduction in cell viability incubated for 24 hrs by MTT assay. Format: functional, cell-based. To be noted: PC-3, 24 h.
Experiment [7] relates to Candida albicans. The experiment is described as follows: Antimicrobial activity Candida albicans against incubated for 24 hrs. Format: functional.
Experiment [8] deals with Acetylcholinesterase (Homo sapiens, UniProt P22303). The experiment is described as follows: Inhibition of AChE (unknown origin) using […] as substrate incubated for 10 mins by Ellman's method.
Chain of Acetylcholinesterase (P22303 whole entry): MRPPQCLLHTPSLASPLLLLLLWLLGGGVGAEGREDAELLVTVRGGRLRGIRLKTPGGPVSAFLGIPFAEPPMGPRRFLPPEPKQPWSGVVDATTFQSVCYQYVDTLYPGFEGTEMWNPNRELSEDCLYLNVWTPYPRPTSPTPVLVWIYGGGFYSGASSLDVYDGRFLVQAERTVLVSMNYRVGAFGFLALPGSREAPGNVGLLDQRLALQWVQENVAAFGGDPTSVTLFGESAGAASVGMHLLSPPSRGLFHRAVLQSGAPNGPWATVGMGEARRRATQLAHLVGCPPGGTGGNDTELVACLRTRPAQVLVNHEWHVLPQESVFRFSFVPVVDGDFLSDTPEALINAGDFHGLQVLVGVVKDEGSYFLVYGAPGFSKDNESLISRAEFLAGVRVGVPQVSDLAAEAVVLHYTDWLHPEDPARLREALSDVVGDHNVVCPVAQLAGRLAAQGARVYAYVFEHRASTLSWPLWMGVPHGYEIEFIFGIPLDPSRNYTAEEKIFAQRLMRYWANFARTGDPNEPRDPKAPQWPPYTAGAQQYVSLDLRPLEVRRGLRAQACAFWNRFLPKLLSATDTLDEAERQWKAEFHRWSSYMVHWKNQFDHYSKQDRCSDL
In experiment [9] the test system is Enterococcus faecalis. Kind of experiment: Antimicrobial activity Enterococcus faecalis against incubated for 24 hrs. Format: functional.
In experiment [10] the test system is Cyberlindnera jadinii. Kind of experiment: Antimicrobial activity Candida utilis against incubated for 24 hrs. Format: functional. The following applies: Williopsis jadinii.
For experiment [11], the target named is T1, Tyrosinase. Kind of experiment: Inhibition of tyrosinase (unknown origin) using L-DOPA as substrate incubated for 10 mins.

Values after ≈ are worked out from the molar mass of the structure shown.

`O=c1c(O)c(-c2ccc(O)c(O)c2)oc2cc(O)cc(O)c12` [QUERCETIN] returned an IC50 in [1] of […].

`O=c1c(O)c(-c2ccc(O)cc2)oc2cc(O)cc(O)c12` [KAEMPFEROL]: the midpoint of inhibition in [1], the IC50, lay at 65.1 µM.

As for `CCC(c1ccc(O)c(OC)c1)c1cccc(O)c1O` (stereo not drawn), the IC50 was found to be 2.82 µM in [2], 16.1 µg/mL (≈ 58.9 µM) in experiment [6], 5.66 µM in [8] and 2.32 µM in [11]. For the same compound, the MIC is 181 µg/mL (≈ 659 µM) in experiment [3]; 284 µg/mL (≈ 1040 µM) in experiment [4]; 277 µg/mL (≈ 1010 µM) in [5]; 448 µg/mL (≈ 1630 µM) in experiment [7]; 369 µg/mL (≈ 1350 µM) in experiment [9]; 467 µg/mL (≈ 1700 µM) in experiment [10].

With `O=C(/C=C/c1ccc(O)cc1)OC[C@H]1O[C@@H](Oc2c(-c3ccc(O)cc3)oc3cc(O)cc(O)c3c2=O)[C@H](O)[C@@H](O)[C@@H]1O` [TILIROSIDE], 78.5 µM corresponded to half-maximal inhibition in experiment [1] (IC50).

As to `CCC(c1ccc(O)c(OC)c1)c1ccc(OC)cc1O` (stereo not drawn), the IC50 in [2] came to 2.25 µM; in experiment [6], 12.2 µg/mL (≈ 42.2 µM); in experiment [8] it was 4.76 µM; in experiment [11] it was 2.83 µM. In addition, the MIC in experiment [3] was determined as 269 µg/mL (≈ 933 µM); in experiment [4], 184 µg/mL (≈ 638 µM); in experiment [5], 204 µg/mL (≈ 707 µM); in experiment [7] it was 220 µg/mL (≈ 761 µM); in [9] it was 112 µg/mL (≈ 389 µM); in experiment [10], 249 µg/mL (≈ 864 µM).
